Counter-ions that a name gives are not always drawn.
Experiments:
[1] = system: skin of Hartley strain guinea pig; assay: Test 2 safety (sensitization) maximization test; type: in vivo; settings: for Positivity: 3% induction, examined after 48 hours; for sensitizing potential: in words
Experimental: Safety (sensitization) was evaluated by a maximization test. An area of 4×6 cm^2 of skin on the scapula of a Hartley strain guinea pig (female) weighing 350 to 400 g was shaved and given intradermal injections with each three injections in two lines according to the following procedures: • (1)each 0.05 mL of Freunds' Complete Adjuvant (hereinafter simply called FCA) was intradermally injected at each one spot in the right and left sites. • (2) each 0.05 mL of a 3% fumaric acid diester derivative solution in ethanol of as a test sample was intradermally injected at another each one spot in the right and left sites. • (3) to a 6% fumaric acid diester derivative solution in FCA as a test sample, the same amount of sterilized water was added and resultant emulsified solution was intradermally injected at a right side and a left side sites in an amount of 0.05 mL.
At one week after the aforementioned procedures, the skin of the same sites was shaved and 10% of sodium lauryl sulfate in vaseline was applied to cause light inflammation. After 24 hours from the application, 0.2 mL of a 3% fumaric diester derivative solution in ethanol as a test sample, which was applied on a piece of gauze, was patched close on the same sites for 48 hours. On the 21st day after the intradermal injection, the abdominal area was shaved, to which a solution of a fumaric acid diester derivative in ethanolas a test sample, which was applied in a piece of gauze, was patched close for 24 hours. The symptoms in the skin were visually examined according to the following criteria after 48 hours.

[2] = system: amphiregulin mRNA; assay: Test Example 6 inhibition of the expression of amphiregulin in keratinocytes; type: cell-based; settings: 24 hours, human keratinocytes
Experimental: (§1) The amount of expression of amphiregulin in the keratinocytes was determined by the following test method. Cultured keratinocytes of human epidermis origin (ex Kurabo Corporation) were used. Keratinocyte suspension was adjusted to a concentration of 150×10^4 units/mL in an MCDB153 culture medium supplemented with BPE (bovine pituitary extract), insulin, ethanolamine, phosphoethanolamine, and hydrocortisone as growth promotors. Four milliliters of the cell suspension was inoculated to a 60 mm plate (ex Falcon Corporation). […] This plate was subjected to static culturing at 37° C. for 24 hours under an atmosphere consisting of 95% (v/v) air and 5% (v/v) carbon dioxide gas. Using a QIAGEN™ RNA kit, whole mRNA was extracted. […] The amount of each mRNA per total in the absence of the fumarate was measured as the control. The amount of mRNA in the presence of the fumarate was expressed in % relative to those of the control. (2) Results

[3] = system: G3PDH mRNA; assay: Test Example 6 G3PDH mRNA in keratinocytes; type: cell-based; settings: 24 hours, human keratinocytes
Experimental: as §1

[4] = system: dorsal skin of hairless mice; assay: Test Example 9 depression of UV-induced epidermal hyperproliferation; type: in vivo; settings: 0.5% in 50% ethanol, 4 weeks pre-application, UVB 0.15 J/cm^2, 4th day after the irradiation; mean values
Experimental: The inhibition of epidermal hyperproliferation was investigated by the following test method in which the present fumarate was applied to the skin where epidermal hyperproliferation had been induced by UV irradiation Hairless mice of 10 weeks old at the beginning of the test were used with 5 mice per group. […] The animals were slaughtered on the 4th day after the irradiation and skin section were made. From the section, tissue section samples were prepared by HE staining. The samples prepared were photographed using an light microscope. In the microscopic photographs, the thickness of the epidermis was measured. Using the epidermis thickness at the beginning of the test as a standard, the mean values were compared between the control group and the treated groups.

[5] = system: dorsal skin of hairless mice; assay: Test Example 8 inhibition of dry skin induced by retinoic acid (TEWL); type: in vivo
Experimental: The effect of inhibiting dry skin was investigated by the following test method in which the present fumarate was applied to the dry skin induced by retinoic acid. Hairless mice of 10 weeks old at the beginning of the test were used with five mice per group. […] Subsequently, 0.05 mL of a 0.05% retinoic acid solution in 50% ethanol aqueous solution was applied once a day for 4 days. During these 4 days, retinoic acid was applied in the morning, and, some hours later in the afternoon, the sample was applied. […] In Comparative Example 5, a control sample comprising the base alone was used instead of the sample. In Comparative Example 6, the base was always applied. The TEWL values after the application of the samples are as shown below.

[6] = system: hairless mouse dorsal skin (epidermal permeability barrier function disrupted by UVB); assay: Test 1 epidermal permeability barrier function amelioration test (TEWL after UVB); type: in vivo, hairless mice (Hos: Hr-1); settings: for TEWL change rate 3rd day / TEWL change rate 4th day: mean values
Experimental: An effect of improving epidermal permeability barrier function by applying the agents on the skin of which epidermal permeability barrier function has been disrupted was evaluated by the following test method. Male hairless mice (Hos: Hr-1) of 10 weeks old at the beginning of the test were used with each 5 mice per group. Transepidermal water loss (TEWL) was measured as follows using a continuous perspiration measurement device, Hydrograph AMU-100 (ex K & S Co., Ltd.). […] The amount of water vapor in the nitrogen gas was measured before the gas was fed to the capsule and after it was recovered from the capsule. […] The TEWL of the hairless mouse dorsal skin was first measured at the beginning of the test. Subsequently, 0.05 mL of each sample was applied on an area of approximately 2.5 cm diameter in the dorsal skin of the hairless mice once a day from Monday to Friday (pre-application). Then, on the third day from the last day of the pre-application, the skin was irradiated once with ultraviolet B ray (UVB) at a dose of 0.15 J/cm^2. […] TEWL changes with the degree of disruption of the epidermal permeability barrier function. A higher value of TEWL change rate implies a greater degree of disruption of the epidermal permeability barrier function. In the case of the application of the base alone, disruption in the epidermal permeability barrier function by UVB was similar to that in the case of non-application.

[7] = system: HB-EGF mRNA; assay: Test Example 4 HB-EGF expression rate in keratinocytes (Northern blotting); type: cell-based, human; settings: for Amount of mRNA, % relative to the control, HB-EGF: 24 hours, human keratinocytes
Description: (§2) The HB-EGF expression rates were investigated by the following test methods where the compounds of the present invention were applied on the keratinocytes. Cultured keratinocytes of human epidermis origin, commercially available from Kurabo Corporation, were used. Keratinocyte susupension was adjusted to a concentration of 400×10^4 units/mL on an MCDB153 culture medium supplemented with BPE (bovine pituitary extract), insulin, ethanolamine, phosphoethanolamine, and hydrocortisone as growth promotors. Four milliliters of the cell suspension was inoculated to a 60 mm plate (ex Falcon Corporation). […] This plate was subjected to static culturing at 37° C. for 24 hours under an atmosphere consisting of 95% (v/v) air and 5% (v/v) carbon dioxide gas. Using a QIAGEN™ RNA kit, whole mRNA was extracted. […] The amount of each mRNA per total in the absence of the fumarate was measured as the control. The amount of mRNA in the presence of the fumarate was expressed in % relative to those of the control.

[8] = system: G3PDH mRNA; assay: Test Example 4 G3PDH mRNA in keratinocytes (Northern blotting); type: cell-based; settings: 24 hours, human keratinocytes
Description: as §2

[9] = system: G3PDH mRNA; assay: Test Example 7 G3PDH mRNA in keratinocytes with retinoic acid; type: cell-based, human; settings: retinoic acid alone 1 μmol/L, 24 hours
Experimental: (§3) The amount of amphireglurin expression in the presence of retinoic acid in the keratinocytes was determined by the following method.
(§4) Cultured keratinocytes of human epidermis origin (ex Kurabo Corporation) were used.
(§5) Keratinocyte suspensions was adjusted to a concentration of 400×10^4 units/mL in an MCDB153 culture medium supplemented with BPE (bovine pituitary extract), insulin, ethanolamine, phosphoethanolamine, and hydrocortisone as growth promotors. Four milliliters of the cell suspension was inoculated to a 60 mm plate (ex Falcon Corporation). Under an atmosphere of 95% (v/v) air and 5% (v/v) carbon dioxide gas, a confluent state was achieved by static culturing at 37° C. for 3 days, while refreshing the culture every other day.
(§6) After removing the culture medium supernatant by suction, the culture medium was replaced with an MCDB 153 culture medium (containing insulin) to which bis(diethylene glycol monoethyl ether) fumarate at a final concentration of 300 μmol/L or dimethyl fumarate at 70 μmol/L, and optionally retinoic acid at 1 μmol/L had been added. This plate was subjected to static culturing at 37° C. for 24 hours under an atmosphere consisting of 95%(v/v) air and 5% (v/v) carbon dioxide gas. Using a QIAGEN™ RNA kit, whole mRNA was extracted.

[10] = system: amphiregulin mRNA; assay: Test Example 7 inhibition of amphiregulin expression when used together with retinoic acid; type: cell-based, human; settings: retinoic acid alone 1 μmol/L, 24 hours
Experimental: as §3, §4, §5, §6

[11] = system: dorsal skin of aged hairless mice
Experimental: The following test method was used in order to investigate inhibition of reduction in the epidermis thickness when the compound of the present invention was applied on aged skin.
Experimental animals used included 2 groups of aged hairless mice of 33 weeks old at the beginning of the test with each 5 mice per group, and one group of 5 hairless mice of 9 weeks old at the beginning of the test.
A sample was prepared by adding bis(diethylene glycol monoethyl ether) fumarate to a 50% ethanol aqueous solution (base) at a concentration of 0.5%. This sample was applied in an amount of 0.05 mL on the dorsal skin of hairless mice (in a diameter of approximately 2.5 cm) once a day for consecutive 5 days per week followed by 2 days interval. This schedule was repeated for 4 weeks. Subsequently, a portion of the skin was sampled and a frozen section was prepared. The thickness of the epidermis was measured by microscopic observation.

[12] = 0.5% sample 5 days pre-application, then 0.05% retinoic acid once a day for 4 days with sample in the afternoon
[13] = Table 1, concentration 1% in 50% aqueous ethanol, 0.05 mL once a day, 3rd day after UVB 0.15 J/cm^2
[14] = Table 1, concentration 1% in 50% aqueous ethanol, 4th day after UVB 0.15 J/cm^2

In the case of CCOC(=O)/C=C/C(=O)OCC [Diethyl fumarate], the Positivity [1] is reported as 90% and the sensitizing potential [1] is reported as “sensitizating potential”.
COC(=O)/C=C/C(=O)OC [Dimethyl fumarate, reference compound] was tested, and the “Amount of mRNA, % relative to the control, Amphiregulin” value ([2]; 70 μmol/L) was 39%, the “Amount of mRNA, % relative to the control, G3PDH” value ([3]; 70 μmol/L) was 98% and the “Thickness of the epidermis” value [4] was 40.4 μm. The “Mean value of TEWL” value [5, 12] was 0.063 mg/cm^2/min, the “TEWL change rate 3rd day” value [6, 13] was 3.24 and the “TEWL change rate 4th day” value [6, 14] was 2.50. The “Amount of mRNA, % relative to the control, HB-EGF” value ([7]; 50 μmol/L) was 470% and the “Amount of mRNA, % relative to the control, G3PDH” value ([8]; 50 μmol/L) was 105%.
For CC1=C(/C=C/C(C)=C/C=C/C(C)=C/C(=O)O)C(C)(C)CCC1 [Retinoic acid], the “Amount of mRNA, % relative to the control, G3PDH” value [9] was 105%, the “Mean value of TEWL” value ([5]; 0.05% retinoic acid once a day for 4 days, base alone instead of the sample (no fumarate)) was 0.110 mg/cm^2/min and the “Amount of mRNA, % relative to the control, Amphiregulin” value [10] was 300%.
In the case of CCOCCOCCOC(=O)/C=C/C(=O)OCCOCCOCC [bis(diethylene glycol monoethyl ether) fumarate], the “Amount of mRNA, % relative to the control, Amphiregulin” value ([2]; 300 μmol/L) is reported as 8%, the “Amount of mRNA, % relative to the control, G3PDH” value ([3]; 300 μmol/L) is reported as 102% and the “Thickness of the epidermis” value [4] is reported as 61.6 μm. For the same compound, the “Mean value of TEWL” value [5, 12] was 0.055 mg/cm^2/min, the “TEWL change rate 3rd day” value [6, 13] was 3.25 and the “TEWL change rate 4th day” value [6, 14] was 2.49. For the same compound, the “TEWL change rate 3rd day” value ([6]; Table 2, first value column, concentration 0.001%) was 7.01, the “TEWL change rate 3rd day” value ([6]; Table 2, first value column, concentration 0.01%) was 6.46 and the “TEWL change rate 3rd day” value ([6]; Table 2, first value column, concentration 0.1%) was 3.79. The “TEWL change rate 3rd day” value ([6]; Table 2, first value column, concentration 1%) was 3.62, the “TEWL change rate 3rd day” value ([6]; Table 2, second value column, concentration 0.001%) was 7.31 and the “TEWL change rate 3rd day” value ([6]; Table 2, second value column, concentration 0.01%) was 6.84. For the same compound, the “TEWL change rate 3rd day” value ([6]; Table 2, second value column, concentration 0.1%) was 5.21, the “TEWL change rate 3rd day” value ([6]; Table 2, second value column, concentration 1%) was 4.33 and the “amelioration of epidermal permeability barrier function” value ([6]; in words, compared to the base alone and diphenylethyl fumarate) was “clearly reduces disruption in the epidermal permeability barrier function by UVB”. The “Amount of mRNA, % relative to the control, HB-EGF” value ([7]; 300 μmol/L) was 380%, the “induction of HB-EGF expression” value ([7]; in words, 300 μmol/L) was “induced the expression of HB-EGF as strongly as dimethyl fumarate” and the “Amount of mRNA, % relative to the control, G3PDH” value ([8]; 300 μmol/L) was 98%. The Positivity [1] was 0%, the sensitizing potential [1] was “no sensitizing potential” and the “Mean values of the epidermis thickness” value ([11]; 33 weeks old hairless mice, 0.5% in 50% ethanol, 0.05 mL once a day 5 days per week for 4 weeks) was 20.96 μm. The “inhibition of thinning of the epidermis due to aging” value ([11]; in words, compared to the non-treatment) was “thinning of the epidermis due to aging was clearly inhibited”.
COCCOC(=O)/C=C/C(=O)OCCOC [bis(ethylene glycol monomethyl ether) fumarate] was tested, and the Positivity [1] was 90% and the sensitizing potential [1] was “sensitizating potential”.
For “Diphenylethyl fumarate [reference compound]”, the “TEWL change rate 3rd day” value ([6]; Table 1, concentration printed '.1I' %, 3rd day after UVB) was 7.82 and the “TEWL change rate 4th day” value ([6]; Table 1, concentration printed '.1I' %, 4th day after UVB) was 6.57.

— patent US7037489B2, “Skin external agents and drugs” (Kanebo Cosmetics, Inc., priority 1999, dated 2006)
